Values of other authors, collected in US20160311746A1, “METHOD OF PRODUCING ADIPIC ACID OR AT LEAST A RESULTANT PRODUCT THEREOF” (BASF SE, priority 2013, published 2016).

Conditions: at about 47° C.

For `O=C(O)/C=C\C=C/C(=O)O` [cis,cis-muconic acid], the solubility in water is given as “about 1 g per 100 g of water”.
